What was measured:
human plasma = test: Anticoagulant effect on human blood in vitro (APTT clotting time, CT2.0); settings: final concentration of compound corresponding to aPTT of the 2-fold blank control
Experimental: Activated partial thromboplastin time (APTT) measurement reagent was mixed with plasma and the reaction was carried out continuously resulting in a change in optical density up to the clotting point, and the clotting time (CT) was measured by optical turbidimetry using a semi-automatic coagulation analyzer. The in vitro anticoagulant activity of compounds on human blood was determined by detecting the clotting time of plasma treated with different concentrations of compounds, and the corresponding concentration of compounds prolonging clotting time was calculated.
Human plasma used in the experiment was purchased from HD Biosciences (Shanghai) Co., Ltd.; Activated partial thromboplastin time determination kit was purchased from Taizhou Zhongqin Shidi Biotechnology Co., Ltd., Item No. SS00220005.
(§1) The compounds were dissolved in 100% DMSO, 20 mM, and stored at room temperature in a nitrogen cabinet.
a. The NaCl reagent in the kit was incubated half an hour in advance, and the APTT reagent was balanced to room temperature.
b. The compound was continuously diluted at 14 concentration points using a Bravo liquid workstation with a 2-fold gradient.
c. 0.75 μL of the compound was added to the measuring cup, double-replicate wells; 50 μL of plasma was added and 50 μL of APTT reagent was added, the mixture was mixed well and put into coagulation analyzer for incubation at 37° C. for 3 minutes.
d. APTT assay was started, 50 μL of NaCl was added to start the reaction, and the clotting time was counted.
e. Control clotting time was measured using 100% DMSO instead of the compound, and the final concentration of DMSO was 0.5%.
Data were curve-fitted using Graphpad Prism to calculate CT2.0, the final concentration of compound corresponding to aPTT of the 2-fold blank control was calculated.

[1] = target: T1, coagulation factor XIa protease (FXIa) (Homo sapiens, UniProt P03951); test: Inhibition of coagulation factor XIa (FXIa), chromogenic substrate, absorbance at 405; assay type: biochemical; settings: FXIa 0.05 μg/mL, substrate 2.5 mM, 37° C. 15 minutes
T1 construct: purchased Abcam ab62411
Experimental: Coagulation factor XIa protease (FXIa) decomposed the specific substrate to produce yellow p-nitroaniline (pNA), pNA had strong absorption at 405 nm. The inhibitory activity of the compounds on coagulation factor XIa was determined by assaying the absorbance of the compounds at […].
The coagulation factor XIa protease used in the experiment was purchased from Abcam Company, Item No. ab62411; the coagulation factor XIa-specific substrate was purchased from HYPHEN BioMed, Item No. Biophen cs-21 (66); tris-HCl was purchased from Invitrogen, Item No. 15567-027; NaCl was purchased from ABCONE, Item No. S39168; Twain 20 was purchased from Amersco, Item No. 0777-1L.
as §1
a. 20 mM of the tested compound was diluted to 2 mM using 100% DMSO, and the reference compound was diluted to 0.4 mM; the compound was continuously diluted with a 3-fold gradient at 10 concentration points using a Bravo liquid workstation.
b. The ECHO liquid workstation was used to transfer 10 nL of compound to the corresponding 384-well experimental plate with double replicate wells; the final concentrations of compound reactions were 1000, 333.3, 111.1, 37.0, 12.3, 4.1, 1.37, 0.46, 0.15, and 0.05 nM. The final concentrations of reference compounds were 200, 66.7, 22.2, 7.4, 2.47, 0.82, 0.27, 0.09, 0.03, 0.01 nM.
c. 10 nL DMSO and 10 nL 0.4 mM reference compounds were transferred to high signal control pores and low signal control pores respectively.
d. 0.1 μg/mL FXIa enzyme solution was prepared with buffer solution, and 10 μL enzyme solution was added to 384-well experimental plate, 5 mM substrate solution was prepared using buffer solution, and […] substrate solution was added to a 384-well experimental plate. The final concentration of FXIa was 0.05 μg/mL and the final concentration of the substrate was 2.5 mM.
e. The 384-hole experimental plate was centrifuged and incubated at 37° C. for 15 minutes.
f. The absorbance was measured at 405 nm using EnVision.

T1 sequence (P03951 388-625 limits assumed): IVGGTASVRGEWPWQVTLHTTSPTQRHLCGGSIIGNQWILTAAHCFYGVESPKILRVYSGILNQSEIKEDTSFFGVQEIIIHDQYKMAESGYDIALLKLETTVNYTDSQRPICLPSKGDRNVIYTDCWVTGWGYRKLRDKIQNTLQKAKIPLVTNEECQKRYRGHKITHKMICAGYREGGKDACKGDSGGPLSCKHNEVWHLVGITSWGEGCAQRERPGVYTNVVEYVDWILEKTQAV
T1 sequence (P03951 19-387 partner limits assumed): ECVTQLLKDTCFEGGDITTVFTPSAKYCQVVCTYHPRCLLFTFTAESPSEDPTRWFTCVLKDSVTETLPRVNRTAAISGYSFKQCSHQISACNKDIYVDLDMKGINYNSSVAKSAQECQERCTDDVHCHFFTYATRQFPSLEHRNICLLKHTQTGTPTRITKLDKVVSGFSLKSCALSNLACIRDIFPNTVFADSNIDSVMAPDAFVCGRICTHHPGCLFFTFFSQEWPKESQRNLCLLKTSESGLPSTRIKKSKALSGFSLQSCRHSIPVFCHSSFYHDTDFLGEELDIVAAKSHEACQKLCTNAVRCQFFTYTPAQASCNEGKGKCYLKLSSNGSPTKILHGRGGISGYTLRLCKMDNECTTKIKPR

| SMILES | IC50 [1] [nM] | CT2.0 (human plasma) [µM] |
| --- | --- | --- |
| Nc1n[nH]c2cc(-c3cnc([C@@H]4[C@H]5C[C@H]5c5cc(-c6cc(Cl)ccc6-n6cnnn6)cc(=O)n54)[nH]3)ccc12 [Embodiment 15] | 0.82 | 0.47 |
| O=C1CCc2cc(-c3cnc([C@@H]4[C@H]5C[C@H]5c5cc(-c6cc(Cl)ccc6-n6cnnn6)cc(=O)n54)[nH]3)ccc2N1 [Embodiment 16] | 4.74 | 0.63 |
| O=C1CCc2cc(-c3[nH]c([C@@H]4[C@H]5C[C@H]5c5cc(-c6cc(Cl)ccc6-n6cnnn6)cc(=O)n54)nc3F)ccc2N1 [Embodiment 17] | 0.83 | 0.54 |
| O=C1COc2cc(-c3cnc([C@@H]4[C@H]5C[C@H]5c5cc(-c6cc(Cl)ccc6-n6cnnn6)cc(=O)n54)[nH]3)ccc2N1 [Embodiment 20] | 6.3 | 0.88 |
| Nc1noc2cc(-c3cnc([C@@H]4[C@H]5C[C@H]5c5cc(-c6cc(Cl)ccc6-n6cnnn6)cc(=O)n54)[nH]3)ccc12 [Embodiment 28] | 0.82 | 0.07 |
| Nc1n[nH]c2cc(-c3cnc([C@@H]4[C@H]5C[C@H]5c5cc(-c6cc(Cl)ccc6-n6cc(Cl)nn6)cc(=O)n54)[nH]3)ccc12 [Embodiment 32] | 2.72 | 0.26 |
| Nc1ccc(-c2[nH]c([C@@H]3[C@H]4C[C@H]4c4cc(-c5cc(Cl)ccc5-n5cnnn5)cc(=O)n43)nc2F)cc1OC(F)(F)F [Embodiment 49] | 6.4 | 6.86 |
| O=c1cnc2cc(-c3cnc([C@@H]4[C@H]5C[C@H]5c5cc(-c6cc(Cl)ccc6-n6cnnn6)cc(=O)n54)[nH]3)ccc2[nH]1 [Embodiment 55] | 5.18 | 0.67 |
| O=c1[nH]c2ccc(-c3[nH]c([C@@H]4[C@H]5C[C@H]5c5cc(-c6cc(Cl)ccc6-n6cnnn6)cc(=O)n54)nc3F)cc2cc1C(F)(F)F [Embodiment 58] | 3.25 | 1.21 |
| O=C1COc2cc(-c3[nH]c([C@@H]4[C@H]5C[C@H]5c5cc(-c6cc(Cl)ccc6-n6cc(Cl)nn6)cc(=O)n54)nc3F)ccc2N1 [Embodiment 62] | 6.76 | 2.32 |
| CNc1noc2cc(-c3[nH]c([C@@H]4[C@H]5C[C@H]5c5cc(-c6cc(Cl)ccc6-n6cc(Cl)nn6)cc(=O)n54)nc3F)ccc12 [Embodiment 70] | 2.16 | 1.32 |
| Cn1nc(N)c2ccc(-c3[nH]c([C@@H]4[C@H]5C[C@H]5c5cc(-c6cc(Cl)ccc6-n6cc(Cl)nn6)cc(=O)n54)nc3F)cc21 [Embodiment 75] | 5.27 | 1.42 |
| Nc1noc2cc(-c3[nH]c([C@@H]4[C@H]5C[C@H]5c5cc(-c6cc(Cl)ccc6-n6cc(C(F)(F)F)nn6)cc(=O)n54)nc3F)ccc12 [Embodiment 79] | 1.02 | 0.72 |
| Nc1n[nH]c2cc(-c3cnc([C@@H]4[C@H]5C[C@H]5c5cc(-c6cc(Cl)ccc6-n6cc(C(F)F)nn6)cc(=O)n54)[nH]3)ccc12 [Embodiment 82] | 4.84 | 1.04 |

The remaining compounds from weak to strong by IC50 [1], led by results:

| IC50 [1] [nM] | SMILES | CT2.0 (human plasma) [µM] |
| --- | --- | --- |
| 11.9 | Cn1nc(N)c2ccc(-c3cnc([C@@H]4[C@H]5C[C@H]5c5cc(-c6cc(Cl)ccc6-n6cnnn6)cc(=O)n54)[nH]3)cc21 [Embodiment 34] | 0.58 |
| 8.71 | O=c1cc(-c2cc(Cl)ccc2-n2cnnn2)cc2n1[C@H](c1ncc(-c3ccc4c(c3)CCc3cn[nH]c3-4)[nH]1)[C@H]1C[C@@H]21 [Embodiment 42] | 1.08 |
| 8.65 | Nc1ccc(-c2cnc([C@@H]3[C@H]4C[C@H]4c4cc(-c5cc(Cl)ccc5-n5cnnn5)cc(=O)n43)[nH]2)c(F)c1F [Embodiment 24] | 0.90 |
| 8.32 | O=C1Nc2ccc(-c3cnc([C@@H]4[C@H]5C[C@H]5c5cc(-c6cc(Cl)ccc6-n6cnnn6)cc(=O)n54)[nH]3)cc2CO1 [Embodiment 57] | 0.54 |
| 7.02 | Nc1ccc(-c2[nH]c([C@@H]3[C@H]4C[C@H]4c4cc(-c5cc(Cl)ccc5-n5cnnn5)cc(=O)n43)nc2F)cc1C(F)(F)F [Embodiment 50] | 3.16 |
| 6.7 | Nc1ccc(-c2[nH]c([C@@H]3[C@H]4C[C@H]4c4cc(-c5cc(Cl)ccc5-n5cnnn5)cc(=O)n43)nc2F)c(F)n1 [Embodiment 2] | 0.55 |
| 6.5 | Nc1ccc(-c2cnc([C@@H]3[C@H]4C[C@H]4c4cc(-c5cc(Cl)ccc5-n5cnnn5)cc(=O)n43)[nH]2)c(F)n1 [Embodiment 1] | 1.72 |
| 6.36 | O=C1CCc2cc(-c3[nH]c([C@@H]4[C@H]5C[C@H]5c5cc(-c6cc(Cl)ccc6-n6cc(C(F)(F)F)nn6)cc(=O)n54)nc3Cl)ccc2N1 [Embodiment 80] | 3.50 |
| 5.37 | O=C1CCc2cc(-c3[nH]c([C@@H]4[C@H]5C[C@H]5c5cc(-c6cc(Cl)ccc6-n6cc(C(F)(F)F)nn6)cc(=O)n54)nc3F)ccc2N1 [Embodiment 81] | 2.28 |
| 4.78 | O=C1Nc2ccc(-c3[nH]c([C@@H]4[C@H]5C[C@H]5c5cc(-c6cc(Cl)ccc6-n6cc(Cl)nn6)cc(=O)n54)nc3F)cc2CO1 [Embodiment 64] | 1.11 |
| 4.63 | O=C1CCc2cc(-c3[nH]c([C@@H]4[C@H]5C[C@H]5c5cc(-c6cc(Cl)ccc6-n6cc(Cl)nn6)cc(=O)n54)nc3F)ccc2N1 [Embodiment 31] | 2.38 |
| 3.93 | Nc1ccc(-c2[nH]c([C@@H]3[C@H]4C[C@H]4c4cc(-c5cc(Cl)ccc5-n5cnnn5)cc(=O)n43)nc2F)c(F)c1F [Embodiment 48] | 3.65 |
| 3.54 | Nc1noc2c(F)c(-c3cnc([C@@H]4[C@H]5C[C@H]5c5cc(-c6cc(Cl)ccc6-n6cc(Cl)nn6)cc(=O)n54)[nH]3)ccc12 [Embodiment 68] | 0.65 |
| 3.18 | O=C1CCc2cc(-c3[nH]c([C@@H]4[C@H]5C[C@H]5c5cc(-c6cc(Cl)ccc6-n6cc(Cl)nn6)cc(=O)n54)nc3Cl)ccc2N1 [Embodiment 77] | 0.82 |
| 2.84 | Nc1ccc(-c2[nH]c([C@@H]3[C@H]4C[C@H]4c4nc(-c5cc(Cl)ccc5-n5cnnn5)cc(=O)n43)nc2F)c(F)n1 [Embodiment 14] | 0.55 |
| 1.41 | CC1Cc2cc(-c3[nH]c([C@@H]4[C@H]5C[C@H]5c5cc(-c6cc(Cl)ccc6-n6cnnn6)cc(=O)n54)nc3F)ccc2NC1=O (stereo partly shown) [Embodiment 59] | 0.84 |
| 1.41 | Nc1n[nH]c2cc(-c3[nH]c([C@@H]4[C@H]5C[C@H]5c5cc(-c6cc(Cl)ccc6-n6cc(C(F)(F)F)nn6)cc(=O)n54)nc3F)ccc12 [Embodiment 78] | 0.86 |
| 0.85 | Nc1n[nH]c2cc(-c3[nH]c([C@@H]4[C@H]5C[C@H]5c5cc(-c6cc(Cl)ccc6-n6cc(Cl)nn6)cc(=O)n54)nc3F)ccc12 [Embodiment 33] | 0.69 |
| 0.76 | Cn1nc(N)c2ccc(-c3[nH]c([C@@H]4[C@H]5C[C@H]5c5cc(-c6cc(Cl)ccc6-n6cnnn6)cc(=O)n54)nc3F)cc21 [Embodiment 76] | 0.43 |
| 0.5 | Nc1noc2cc(-c3[nH]c([C@@H]4[C@H]5C[C@H]5c5cc(-c6cc(Cl)ccc6-n6cnnn6)cc(=O)n54)nc3F)ccc12 [Embodiment 29] | 0.37 |
| 0.36 | Nc1noc2cc(-c3[nH]c([C@@H]4[C@H]5C[C@H]5c5cc(-c6cc(Cl)ccc6-n6cc(Cl)nn6)cc(=O)n54)nc3F)ccc12 [Embodiment 69] | 0.86 |

— patent US20220251095A1, “TRICYCLIC COMPOUND, PREPARATION METHOD THEREFOR AND USE THEREOF” (SHANGHAI JEMINCARE PHARMACEUTICALS CO., LTD., priority 2019, published 2022)
